Measured values taken from patent publication EP1149836B1, “Polynalbuphine derivatives” (Hu, Oliver Yoa-Pu, priority 2000, dated 2001).
“And” between values parts separate entries of the source, which are not always exact repeats. Equal values may be shown once. Where a name gives a salt, the structure may show the parent alone.

Legend:
[1] = in vivo; cited from earlier work
[2] = cold ethanol tail flick test, dose response and MonoNalbuphine derivative study; conditions: rats; for maximal analgesic effect found at (dose): intramuscularly injection, Figure 4
Procedure: Each group consisted of 6 rats, and each rat was injected once intramuscularly on the rear leg.
The dose for each rat was 25 micromole per kg, intramuscularly.
The time to stop the experiment was set at 40 seconds to prevent the tail from cold sore. No cold sores were found within 40 sec. Five minutes after the drug was given to the rat, the flick test was performed every 10 minutes or more.

[3] = pharmacokinetic study of long acting preparation in Beagle dog; set-up: species or system Beagle dogs; conditions: in vivo, comparison with sebacoyl dinalbuphine ester, read-out: half life for excretion (converted)
[4] = analgesic effect after intramuscular injection to rats, polynalbuphine derivative study; format: in vivo, Sprague Dawley rats
Procedure: In the experiment, a circulating cold ethanol bath with a temperature maintained at -20°C was set up. After dosing, the rat tail(1/3 from the tip) was immersed in the bath. The latency for the rat to flick its tail from the bath was measured to be the analgesic threshold. The effect of various opium alkaloid preparations can be determined with this test.
The analgesic effect can be calculated as follows: analgesic effect (%) = (flicking time after dosing - flicking time before dosing ) / (test terminated time - flicking time before dosing ) X 100% [formula]
(§1) Six male Sprague Dawley rats (175 to 225 g), and six male guinea pig(200 to 250 g) were used.

[5] = analgesic effect after intramuscular injection to guinea pigs; format: in vivo, guinea pig; conditions: 500 µM/kg and 250 µM/kg, Figure 7
From the text: as §1

[6] = in vitro release of Nalbuphine from vehicles (dialysis bag, UV); format: physicochemical; conditions: Fig. 2, p<0.05
[7] = after continuous use for 6 months; cited from earlier work
[8] = half-life of dinalbuphine sebacoyl ester in rat blood, HPLC; format: in vitro ADME
Procedure: • (a) Dinalbuphine sebacoyl ester(SDN) was dissolved in acetonitrile, the concentration was 7.75 mg/ml. • (b) 250 ml of whole blood was collected from rat administered with the thus formed dinalbuphine sebacoyl ester soft drug, and was added with anticoagulant.
(§2) All blood collections were analyzed by HPLC.

[9] = pharmacokinetic study of long acting preparation in Beagle dog; format: in vivo, Beagle dogs
Procedure: Six Beagle dogs were used. Five Beagle dogs were intramuscularly injected with 30 mg/kg long acting sebacoyl dinalbuphine ester oily parenteral administration respectively, and another one was injected with 100 mg/kg long acting sebacoyl dinalbuphine ester oily parenteral administration. Blood samples were collected through the veins in front limbs of the dogs at 1, 2, 6, 24, 30, 48, 54, 72, 78, 96, 102, 120, 168, 192 hours. […] The relationship between time and concentration was analyzed by PCNONLIN computer program. Two-compartment model and pharmacokinetic parameters were calculated to depict absorption, distribution, metabolism, and excretion of drugs in the dogs.

[10] = half-life of dinalbuphine sebacoyl ester in rabbit blood, HPLC; format: in vitro ADME
Procedure: • (a) Dinalbuphine ester sebacoyl ester was dissolved in acetonitrile, the concentration was 5.2 mg/ml. • (b) 150 ml of whole blood was collected from rabbit administered with the thus formed dinalbuphine sebacoyl ester soft drug, and was added with anticoagulant.
as §2

[11] = clinical / estimated analgesic duration in humans; format: in vivo; conditions: 125 µM/ kg administered to a human body
Procedure: The analgesic effect was extended to 4-5 days, when the dose administered was below 125 µM/kg. […] The same level of analgesic effect for intramuscular injection to rats was required at 15.625 µM/kg(6.165 mg/kg).
Therefore, the analgesic effect is estimated 4-5 days when 125 µM/ kg of sebacoyl dinalbuphine ester is administered to a human body.
The amount of the aforesaid injection was about 10 ml. However, the analgesic effect could not be maintained 4 to 5 days even upon administration of 88 ml of Malbuphine hydrochloride because of metabolism. Besides, such parenteral volume was not ideal for a single dose. This invention made an improvement. By diluting a single dose of sebacoyl dinalbuphine in 7.15 ml sesame oil form, parenteral administration could maintain the analgesic effect 4 to 5 days.

[12] = half-life of dinalbuphine sebacoyl ester in dog blood, HPLC; format: in vitro ADME
Procedure: • (a) Dinalbuphine sebacoyl ester was dissolved in acetonitrile, the concentration was 12.5 mg/ml. • (b)200 ml of whole blood was collected from dog administered with the thus formed dinalbuphine sebacoyl ester soft drug, and was added with anticoagulant.
as §2

[13] = half-life of dinalbuphine sebacoyl ester in human blood, HPLC; format: in vitro ADME
Procedure: • (a) Dinalbuphine sebacoyl ester was dissolved in acetonitrile, the concentration was 10 mg/ml. • (b) 250 ml of whole blood was collected from human administered with the thus formed dinalbuphine sebacoyl ester soft drug, and was added with anticoagulant.
as §2

In the case of `Oc1ccc2c(c1)[C@@]13CCCC[C@@]1(O)[C@@H](C2)N(CC1CCC1)CC3` [Butorphanol], the “dose needed to elicit the same analgesic effect” value [1] is listed as 2 mg.

With `CN1CC[C@]23c4c5ccc(O)c4O[C@H]2[C@@H](O)C=C[C@H]3[C@H]1C5.Cl` [Morphine hydrochloride] the “maximal analgesic effect found at (dose)” value [2] was 10 mg/kg.

In the case of `CN1CC[C@]23c4c5ccc(O)c4O[C@H]2[C@@H](O)C=C[C@H]3[C@H]1C5` [Morphine], the “dose needed to elicit the same analgesic effect” value [1] is given as 10 mg.

For `Oc1ccc2c3c1O[C@H]1[C@@H](O)CC[C@@]4(O)[C@@H](C2)N(CC2CCC2)CC[C@]314` [Nalbuphine hydrochloride], the “maximal analgesic effect found at (dose)” value [2] was 100 mg/kg, the half-life [3] was ~60 min and the analgesic effects ([4]; intramuscular injection, 15.625, 62.5, 250 µM/kg, Figure 6) was “significant analgesic effects”. For the same compound, the analgesic effects [5] was “significant analgesic effects”.

With `Oc1ccc2c3c1O[C@H]1[C@@H](O)CC[C@@]4(O)[C@@H](C2)N(CC2CCC2)CC[C@]314` [Nalbuphine] the analgesic duration ([2]; 25 micromole per kg intramuscularly, in sesame oil, compared with each preparation of MonoNalbuphine derivatives, Fig. 5) was “significantly shorter”, the “amount of released Nalbuphine free base” value ([6]; between 17 and 28 hours) was “less in the preparation with sesame oil than with peanut oil and the phosphate buffer” and the release rate ([6]; sesame oil as the vehicle vs the other three preparations, between 1 and 11 hours) was “slowest release rate”. For the same compound, the “addiction, synergistic effect and respiratory inhibition” value [7] was “no significant addiction and synergistic effect was found, but only slight respiratory inhibition”.

With `O=C(CCCCCCCCC(=O)Oc1ccc2c3c1O[C@H]1[C@@H](O)CC[C@@]4(O)[C@@H](C2)N(CC2CCC2)CC[C@]314)Oc1ccc2c3c1O[C@H]1[C@@H](O)CC[C@@]4(O)[C@@H](C2)N(CC2CCC2)CC[C@]314` [sebacoyl dinalbuphine ester] the “converted time, which converts 90% dinalbuphine sebacoyl ester(SDN) into Nalbuphine” value ([8]; rat) was 10 min, the half-life ([8]; rat blood test, read-out: half life) was 2.8 min and the half-life ([8]; rat plasma, read-out: Elimination Half-life) was 2.8 min. The half-life ([8]; rat whole blood, n=3, mean± S.E, read-out: Elimination Half-life) was 2.2 ± 0.5 min, the half-life ([8]; red blood cells, rat red blood cell, n=3, mean± S.E, read-out: Elimination Half-life) was 2.3 ± 0.6 min and the MRT ([9]; Beagle Dog 2, i.m., Dose 24.3 mg/kg) was 78.8 H. The MRT ([9]; Beagle Dog 2, i.m., Dose 81.0 mg/kg) was 127.2 H, the MRT ([9]; Beagle dogs, 30 mg/kg i.m. oily injection, Mean of five dogs) was 73.2 H and the MRT ([9]; Beagle dogs, 30 mg/kg i.m. oily injection, individual dogs 1-5, listed as SDN, 30 mg/kg) was 84.3 H and 78.8 H and 61.1 H and 62.7 H and 79.1 H. The “kinetic across two doses” value ([9]; Beagle dogs, Table 6 vs Table 7) was “linear kinetic”, the “absorption in injection oil vehicle” value ([9]; Beagle dogs, i.m., Figures 10 and 11) was “zero order” and the “converted time, which converts 90% dinalbuphine sebacoyl ester(SDN) into Nalbuphine” value ([10]; rabbit) was 25 min. It also gave a half-life ([10]; rabbit blood test, read-out: half life) of 7 min, a half-life ([10]; rabbit plasma, n=3, mean± S.E, read-out: Elimination Half-life) of 6.98 ± 0.03 min and a half-life ([10]; rabbit whole blood, n=3, mean± S.E, read-out: Elimination Half-life) of 14.9 ± 1.3 min. For the same compound, the half-life ([10]; red blood cells, rabbit red blood cell, n=3, mean± S.E, read-out: Elimination Half-life) was 26.2 ± 4.8 min, the “analgesic effect estimated (duration)” value [11] was 4 to 5 days and the “converted time, which converts 90% dinalbuphine sebacoyl ester(SDN) into Nalbuphine” value ([12]; dog) was 95 min. For the same compound, the half-life ([12]; dog blood test, read-out: half life) was 27.8 min, the half-life ([12]; dog plasma, n=3, read-out: Elimination Half-life) was 27.8 ± 0.5 min and the half-life ([12]; dog whole blood, n=3, read-out: Elimination Half-life) was 30.5 ± 0.8 min. For the same compound, the half-life ([12]; red blood cells, dog red blood cell, n=3, read-out: Elimination Half-life) was 33.4 ± 1.4 min, the “50% analgesic effect was extended to” value ([4]; intramuscular injection of 125 µM/kg, Figure 9) was 88 h and the analgesic effects ([4]; intramuscular injection, 7.8125, 31.25, 125 µM/kg, Figure 8) was “proportional to the dose administered”. For the same compound, the “analgesic effect relative to Nalbuphine hydrochloride” value ([4]; intramuscular, Figure 9) was 8.8 times, the “analgesic effect was extended to” value ([4]; intramuscular, dose administered below 125 µM/kg) was 4 to 5 days and the “converted time, which converts 90% dinalbuphine sebacoyl ester(SDN) into Nalbuphine” value ([13]; human) was 30 min. The half-life ([13]; human blood test, read-out: half life) was 9 min, the half-life ([13]; human plasma, n=3, read-out: Elimination Half-life) was 9 ± 0.4 min and the half-life ([13]; human whole blood, n=3, read-out: Elimination Half-life) was 8.8 ± 0.4 min. The half-life ([13]; red blood cells, human red blood cell, n=3, read-out: Elimination Half-life) was 7.7 ± 0.4 min.
